Patent US20220233688A1, “ADJUVANTS FOR IMMUNOGENIC COMPOSITIONS AND METHODS OF USE THEREOF” (UNIVERSITY OF MARYLAND, BALTIMORE, priority 2019, published 2022)
Entries after “also recorded” stand apart in the source; their conditions may differ.

How the values were obtained:
[1] = reported in literature (21); cited from earlier work
RSV A2 = format: in vivo, Balb/c mice; conditions: IM days 0 and 21, RSV A2 challenge, lung four days after challenge (day 39)
Cal/09 rHA = system: Cal/09 rHA; design: species or system BALB/c mice; conditions: mouse, in vivo
HPV16-L1 VLPs = system: HPV16-L1 VLPs; design: species or system BALB/c mice; conditions: mouse, in vivo
[2] = system: A/Netherlands/602/2009 (H1N1) (NL/09) virus; format: in vivo, BALB/c mice; conditions: 7 days
[3] = system: A/Netherlands/602/2009 (H1N1) (NL/09) virus; assay: Lung tissue histology inflammation scoring after NL/09 challenge; format: in vivo, BALB/c mice; conditions: 0.04 ug rHA alone or with 100 ug Alum or 50 ug PHAD/BECC, prime-boost
Method: Staining of lung tissue was performed by the UMB EM and Histology Laboratory to assess any histological signs and potential clearing of viral infection. 4% Paraformaldehyde-fixed (Sigma-Aldrich, St Louis, Mo.) lungs were embedded in paraffin and sectioned before staining with haematoxylin and eosin (H&E). Representative slides were selected to most accurately portray the condition of the lungs within each group of vaccinated mice. Pathology scoring was performed by Dr (LT) Robert Kitz, Anatomic Pathologist, Walter Reed National Military Medical Center, Bethesda, Md. Lung sections from each mouse were scored based on overall inflammation using the following scoring parameters (group scores averaged): 0=no inflammation, 1=scant inflammation (<5% multifocal or one small focus); 2=prominent inflammation, <25% parenchyma; 3=prominent inflammation, 25-50% parenchyma; 4=diffuse inflammation, 50-75% parenchyma; 5=diffuse inflammation, >75% parenchyma.

Compound	particle size of aqueous formulation [1] [nm]	protection by lung viral titers (RSV A2)	Day 28 total serum IgG antibody titer (Cal/09 rHA)	HA-specific IgG2a titer (Cal/09 rHA)	L1 ELISA Ab levels (HPV16-L1 VLPs)	average weight loss [2] [%]	histological inflammation scoring of lung [3]
CCCCCCCCCCCCCC(=O)O[C@H](CCCCCCCCCCC)CC(=O)O[C@@H]1[C@@H](NC(=O)C[C@H](CCCCCCCCCCC)OC(=O)CCCCCCCCCCCCC)[C@H](OC[C@H]2O[C@H](O)[C@H](NC(=O)C[C@H](O)CCCCCCCCCCC)[C@@H](OC(=O)C[C@H](O)CCCCCCCCCCC)[C@@H]2O)O[C@H](CO)[C@H]1OP(=O)(O)O [GLA, glucopyranosyl lipid-A]	90						
phosphorylated hexa-acyl disaccharide [PHAD]		full protection in the lower respiratory tract	significant difference between the HA alone and PHAD groups; also recorded: somewhat higher	significantly higher than sham	greater L1 ELISA Ab levels compared to alum alone	10	low inflammation scores with minimal bronchiolar or periarterial inflammation
